Laboratory results: US7572799B2, “Pyrazolo[4,3-d]pyrimidines as Phosphodiesterase Inhibitors” (Pfizer Inc, priority 2003, dated 2009)

target: PDE-5 (UniProt O76074); assay: In vitro PDE inhibitory activity against PDE5 (batch method or scintillation proximity assay); assay type: biochemical, human; conditions: representative compounds
Description: The compounds of the invention are inhibitors of cyclic guanylate monophosphate (cGMP)-specific phosphodiesterase type 5 (PDE-5 inhibitors).
The required PDE enzymes can be isolated from a variety of sources, including human corpus cavernosum, human and rabbit platelets, human cardiac ventricle, human skeletal muscle and bovine retina, essentially by a modification of the method of Thompson, W J et al.; Biochemistry 18(23), 5228-5237, 1979, as described by Ballard S A et al.; J. Urology 159(6), 2164-2171, 1998. In particular, cGMP-specific PDE5 and cGMP-inhibited cAMP PDE3 can be obtained from human corpus cavernosum tissue, human platelets or rabbit platelets; cGMP-stimulated PDE2 was obtained from human corpus cavernosum; calcium/calmodulin (Ca/CAM)-dependent PDE1 from human cardiac ventricle; cAMP-specific PDE4 from human skeletal muscle; and photoreceptor PDE6 from bovine retina. Phosphodiesterases 7-11 can be generated from full length human recombinant clones transfected into SF9 cells.
Assays can be performed either using a modification of the “batch”method of Thompson W J and Appleman M M; Biochemistry 10(2), 311-316, 1971, essentially as described by Ballard S A et al.; J. Urology 159(6), 2164-2171, 1998, or using a scintillation proximity assay for the direct detection of [^3H]-labelled AMP/GMP using a modification of the protocol described by Amersham plc under product code TRKQ7090/7100. In summary, for the scintillation proximity assay the effect of PDE inhibitors was investigated by assaying a fixed amount of enzyme in the presence of varying inhibitor concentrations and low substrate, (cGMP or cAMP in a 3:1 ratio unlabelled to [^3H]-labeled at a concentration of ˜⅓ Km, or less) such that IC50≅Ki. The final assay volume was made up to 100 μl with assay buffer [20 mM Tris-HCl pH 7.4, 5 mM MgCl2, 1 mg/ml bovine serum albumin]. Reactions were initiated with enzyme, incubated for 30-60 min at 30° C. to give <30% substrate turnover and terminated with 50 μl yttrium silicate SPA beads (containing 3 mM of the respective unlabelled cyclic nucleotide for PDEs 9 and 11).

| Structure (SMILES) | IC50 [nM] |
| --- | --- |
| CCOCCn1nc(C(=O)O)c2nc(N(CC)CC)nc(N[C@@H]3CCOC3)c21 [Example 68] | 100 |
| CCCN(C)c1nc(NC2CCCCC2)c2c(n1)c(C(=O)O)nn2CCOCC [Example 30] | 35.8 |
| CCOCCn1nc(C(=O)O)c2nc(N(C)C(C)C)nc(NC3CCC3)c21 [Example 32] | 100 |
| CCOCCn1nc(C(=O)O)c2nc(N(C)C(C)C)nc(NC3CCCC3)c21 [Example 31] | 43.4 |

same assay, conditions: representative compounds, read-out: IC50

| Structure (SMILES) | IC50 [nM] |
| --- | --- |
| CCOCCn1nc(C(=O)O)c2nc(N(C)CC)nc(Nc3cc(C)ncn3)c21 [Example 120] | 1.12 |
| CCN(C)c1nc(Nc2cc(C)ccn2)c2c(n1)c(C(=O)NS(C)(=O)=O)nn2CCOC [Example 162] | 3.1 |
| CCOCCn1nc(-c2nc(=O)o[nH]2)c2nc(N(C)CC)nc(Nc3ccc(F)c(C)c3)c21 [Example 77] | 0.162 |
| CCOCCn1nc(C(=O)O)c2nc(N(C)CCOC)nc(Nc3cc(C)ccn3)c21 [Example 17] | 2.93 |
| CCOCCn1nc(C(=O)OC)c2nc(N(C)CC)nc(Nc3ccc(F)c(C)c3)c21 [Example 116, Methyl 1-(2-ethoxyethyl)-5-[ethyl(methyl)amino]-7-[(4-fluoro-3-methylphenyl)amino]-1H-pyrazolo[4,3-d]pyrimidine-3-carboxylate] | 0.032 |
| CCOCCn1nc(C(=O)NS(C)(=O)=O)c2nc(N(C)C(C)C)nc(Nc3cc(C)ccn3)c21 [Example 113, N-[1-(2-Ethoxyethyl)-5-(N-isopropyl-N-methylamino)-7-(4-methylpyridin-2-ylamino)-1H-pyrazolo[4,3-d]pyrimidine-3-carbonyl]methanesulfonamide] | 0.27 |
| CCOCCn1nc(C(=O)O)c2nc(N(CC)CC)nc(Nc3ccc(F)c(C)c3)c21 [Example 86] | 0.063 |
| CCOCCn1nc(C(=O)OCC)c2nc(N(C)CC)nc(Nc3cc(C)ccn3)c21 [Example 7, Ethyl 1-(2-ethoxyethyl)-5-(N-ethyl-N-methylamino)-7-(4-methylpyridin-2-ylamino)-1H pyrazolo[4,3-d]pyrimidine-3-carboxylate] | 0.082 |
| CCOCCn1nc(C(=O)O)c2nc(N(C)C(C)C)nc(Nc3ccccn3)c21 [Example 105] | 0.741 |
| CCN(CC)c1nc(Nc2ccc(F)c(C)c2)c2c(n1)c(C(=O)O)nn2CCOCC(F)(F)F [Example 140] | 0.099 |
| CCN(C)c1nc(Nc2cc(C)ccn2)c2c(n1)c(C(=O)NS(C)(=O)=O)nn2CCOCC(F)(F)F [Example 178, 5-[Ethyl(methyl)amino]-7-[(4-methylpyridin-2-yl)amino]-N-(methylsulfonyl)-1-[2-(2,2,2-trifluoroethoxy)ethyl]-1H-pyrazolo[4,3-]pyrimidine-3-carboxamide] | 2.21 |
| CCCOCCn1nc(C(=O)NS(C)(=O)=O)c2nc(N(C)CC)nc(Nc3cc(C)ccn3)c21 [Example 171] | 1.21 |
| CCN(C)c1nc(Nc2cc(C)ccn2)c2c(n1)c(C(=O)O)nn2CCOC(C)C [Example 62] | 1.85 |
| CCOCCn1nc(C(=O)O)c2nc(N[C@@H](C)CC)nc(Nc3cc(C)ccn3)c21 [Example 55] | 2.6 |
| CCOCCn1nc(C(=O)O)c2nc(N(C)CC)nc(Nc3cc(C)c(C)cn3)c21 [Example 40] | 0.167 |
| CCOCCn1nc(C(=O)OC)c2nc(N3C[C@@H]4C[C@H]3CN4)nc(Nc3cc(C)ccn3)c21 [Example 4] | 2.62 |
| CCOCCn1nc(-c2nc(=O)o[nH]2)c2nc(N(C)C(C)C)nc(Nc3cc(C)ccn3)c21 [Example 75, 3-[1-(2-Ethoxyethyl)-5-(N-isopropyl-N-methylamino)-7-(4-methylpyridin-2-ylamino)-1H-pyrazolo[4,3-d]pyrimidin-3-yl]-2H-1,2,4-oxadiazol-5-one] | 0.371 |
| CCOCCn1nc(C(=O)OC)c2nc(N(C)C(C)C)nc(Nc3cc(C)ccn3)c21 [Example 1, Methyl 1-(2-ethoxyethyl)-5-(N-isopropyl-N-methylamino)-7-(4-methylpyridin-2-ylamino)-1H-pyrazolo[4,3-d]pyrimidine-3-carboxylate] | 0.075 |
| CCOCCn1nc(C(=O)O)c2nc(N(C)C)nc(Nc3cc(C)cc(C)n3)c21 [Example 27] | 36.8 |
| CCOCCn1nc(C(=O)O)c2nc(N(C)C)nc(Nc3cc(C)c(C)cn3)c21 [Example 41] | 3.2 |
| CCOCCn1nc(C(=O)O)c2nc(N(C)C(C)C)nc(Nc3ccccc3)c21 [Example 95] | 9.11 |
| CCOCCn1nc(-c2nnn[nH]2)c2nc(N(C)C(C)C)nc(Nc3cc(C)ccn3)c21 [Example 79] | 0.332 |
| CCOCCn1nc(C(=O)O)c2nc(N(C)C)nc(Nc3cccc(C)n3)c21 [Example 39] | 57.2 |
| CCOCCn1nc(C(=O)O)c2nc(N(C)CC)nc(Nc3cccc(C)n3)c21 [Example 38] | 16.7 |
